Measurements: publication PMC6984337, “Targeting the Mycobacterium tuberculosis transpeptidase LdtMt2 with cysteine-reactive inhibitors including ebselen” (Chemical Communications (Cambridge, England), 2019)
Where two headings read alike, the source gives them in different places.

Key:
LdtMt2 [1] = biological target: T1, LdtMt2 (Mycobacterium tuberculosis, UniProt I6Y9J2); assay: Fluorescence-based (fluorogenic probe 1) inhibition assay for LdtMt2; format: biochemical
LdtMt2 [2] = biological target: T1, LdtMt2; assay: High-throughput (RapidFire) protein mass spectrometry of covalent adduct formation with LdtMt2; format: biochemical; conditions: for time to complete reaction (adduct formation) with LdtMt2: LdtMt2 3 µM with two equivalents (6 µM) of inhibitor, 50 mM Tris pH 7.5; for stability of covalent complex with LdtMt2: after 24 hours, RapidFire MS
Method: Inhibition assays were performed in flat-bottomed 384-well μ-clear plates (Greiner Bio-One) with a final volume of 25 μL, and using 50 mM HEPES, pH 7.5 containing 0.01% (v/v) Triton X-100 as the assay buffer. LdtMt2 (100 nM) was treated with a range of inhibitor concentrations, and the mixture was incubated for 0, 10 or 60 minutes. Following this pre-incubation, fluorogenic probe 1 (25 μM)2 was added, and the mixture was incubated for a further 30 minutes. The fluorescence signal was then measured using a BMG Labtech PHERAstar FS with λex = 480 nm and λem = 520 nm using the bottom optic. All reactions were carried out in quadruplicate, and controls without inhibitor and without LdtMt2 were included. Inhibition results were normalised using the no inhibitor and no enzyme controls. Dose-response analysis was performed using Prism (GraphPad) with the log(inhibitor) vs normalized response -- variable slope model. Data points were plotted as mean average with the standard deviation as the […]
Mass spectrometric analyses were performed using an Agilent 6550 system equipped with a RapidFire sampler. Samples (100 µL) were prepared in 50 mM Tris, pH 7.5, consisting of 3 µM LdtMt2 and either 6 µM or 30 µM of the relevant inhibitor, as […]
Purified LdtMt2 Δ1-55 (approx. 1 mM; His-tag cleaved) in 50 mM Tris, pH 8.0, 100 mM NaCl was used for crystallography. Crystallisation trials were set up using the sitting drop vapour diffusion method with the JCSG+ broad screen (Molecular Dimensions). A structure of LdtMt2 Δ1-55 (PDB 6RLG) was solved using a crystal […]
Figure S3. MS analysis of the apparent covalent adducts formed with LdtMt2 and the cysteine-reactive inhibitors. […]
conditions used for mass spectrometry are described in the Experimental Details […]
(1 picture or pasted object on this page, not shown here)

[3] = IC50 (μM, mean ± SD) 10 min, 10 min pre-incubation prior to addition of fluorogenic probe 1, LdtMt2 100 nM, probe 1 25 μM
[4] = IC50 (μM, mean ± SD) 60 min, LdtMt2 100 nM, probe 1 25 μM
[5] = without pre-incubation prior to addition of fluorogenic probe 1, LdtMt2 100 nM, probe 1 25 μM, read-out: IC50 (μM, mean ± SD) 0 min

T1 sequence (I6Y9J2 56-408): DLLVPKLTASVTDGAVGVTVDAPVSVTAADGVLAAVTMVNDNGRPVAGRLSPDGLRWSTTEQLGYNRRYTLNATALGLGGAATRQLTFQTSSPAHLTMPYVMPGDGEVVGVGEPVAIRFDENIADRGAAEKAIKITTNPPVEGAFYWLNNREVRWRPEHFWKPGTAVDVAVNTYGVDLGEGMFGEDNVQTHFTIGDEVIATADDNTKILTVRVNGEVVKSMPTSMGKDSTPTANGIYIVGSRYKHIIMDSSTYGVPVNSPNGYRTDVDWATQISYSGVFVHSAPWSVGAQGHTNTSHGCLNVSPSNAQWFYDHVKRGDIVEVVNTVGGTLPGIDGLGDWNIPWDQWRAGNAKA

| SMILES | IC50 (LdtMt2 [1]; [3]) [µM] | IC50 (LdtMt2 [1]; [4]) [µM] | IC50 (LdtMt2 [1]; [5]) [µM] | time to complete reaction (adduct formation) with LdtMt2 (LdtMt2 [2]) [min] | also measured |
| --- | --- | --- | --- | --- | --- |
| c1ccc(SSc2ccccn2)nc1 [Compound 9, Aldrithiol] | 5.35 ± 0.21 | 1.61 ± 0.03 | 22.1 ± 0.7 | ≤ 10 | – |
| O=[Se](O)c1ccccc1 [Compound 7, PhSe(O)OH] | 136 ± 17 | 93.2 ± 9.3 | 309 ± 7 | – | – |
| O=c1c2ccccc2[se]n1-c1ccccc1 [Compound 4, Ebselen] | 0.159 ± 0.077 | 0.143 ± 0.014 | 0.36 ± 0.02 | ≤ 1 | – |
| CN(C)C(=S)SSC(=S)N(C)C [Compound 8, Thiram] | 2.93 ± 0.11 | 0.78 ± 0.029 | 7.01 ± 0.29 | ≤ 45 | stability of covalent complex with LdtMt2 (LdtMt2 [2]): a small amount of unbound protein was observed |
| NC(=O)CI [Compound 2, Iodoacetamide] | – | – | 129 ± 14 | – | IC50 (LdtMt2 [1]; read-out: IC50 (μM, mean ± SD) 10 min, 10 min pre-incubation prior to addition of fluorogenic probe 1, LdtMt2 100 nM, probe 1 25 μM): 32.5 ± 1.4 µM; IC50 (LdtMt2 [1]; read-out: IC50 (μM, mean ± SD) 60 min, LdtMt2 100 nM, probe 1 25 μM): 10.1 ± 0.7 µM |
| O=C1C=CC(=O)N1 [Compound 3, Maleimide] | – | – | – | > 82 | IC50 (LdtMt2 [1]; IC50 (μM, mean ± SD) 0 min): 158 ± 9 µM; IC50 (LdtMt2 [1]; IC50 (μM, mean ± SD) 10 min): 48.3 ± 3.6 µM; IC50 (LdtMt2 [1]; IC50 (μM, mean ± SD) 60 min): 18.6 ± 0.7 µM |
| C[C@@H](O)[C@H]1C(=O)N2C(C(=O)O)=C([C@H]3CCCO3)S[C@H]12 [Compound 11, Faropenem] | – | – | – | – | stability of covalent complex with LdtMt2 (LdtMt2 [2]): a small amount of unbound protein was observed |
| CCC(C)SSc1ncc[nH]1 (stereo not drawn) [Compound 10, PX-12] | 9.56 ± 0.25 | 2.48 ± 0.1 | 27.2 ± 0.5 | – | – |
| Br[Se]c1ccccc1 [Compound 5, PhSeBr] | 5.05 ± 0.35 | 2.02 ± 0.61 | 11.8 ± 1.3 | – | – |
| Cl[Se]c1ccccc1 [Compound 6, PhSeCl] | 24.6 ± 0.9 | 20 ± 1.2 | 62.8 ± 2.2 | – | – |
